Measured values from publication PMC4878759 (PLoS ONE, 2016).

Key:
ANO1 [1] = system: ANO1; set-up: method as in PMID 25848051; conditions: mice ref [14]; cited from earlier work
ANO2 = biological target: T1, ANO2 (Mus musculus, UniProt Q8CFW1); assay: Apical membrane current in FRT-ANO2 cells; format: cell-based; conditions: 10 μM pretreatment
T1 sequence (Q8CFW1 1-1002): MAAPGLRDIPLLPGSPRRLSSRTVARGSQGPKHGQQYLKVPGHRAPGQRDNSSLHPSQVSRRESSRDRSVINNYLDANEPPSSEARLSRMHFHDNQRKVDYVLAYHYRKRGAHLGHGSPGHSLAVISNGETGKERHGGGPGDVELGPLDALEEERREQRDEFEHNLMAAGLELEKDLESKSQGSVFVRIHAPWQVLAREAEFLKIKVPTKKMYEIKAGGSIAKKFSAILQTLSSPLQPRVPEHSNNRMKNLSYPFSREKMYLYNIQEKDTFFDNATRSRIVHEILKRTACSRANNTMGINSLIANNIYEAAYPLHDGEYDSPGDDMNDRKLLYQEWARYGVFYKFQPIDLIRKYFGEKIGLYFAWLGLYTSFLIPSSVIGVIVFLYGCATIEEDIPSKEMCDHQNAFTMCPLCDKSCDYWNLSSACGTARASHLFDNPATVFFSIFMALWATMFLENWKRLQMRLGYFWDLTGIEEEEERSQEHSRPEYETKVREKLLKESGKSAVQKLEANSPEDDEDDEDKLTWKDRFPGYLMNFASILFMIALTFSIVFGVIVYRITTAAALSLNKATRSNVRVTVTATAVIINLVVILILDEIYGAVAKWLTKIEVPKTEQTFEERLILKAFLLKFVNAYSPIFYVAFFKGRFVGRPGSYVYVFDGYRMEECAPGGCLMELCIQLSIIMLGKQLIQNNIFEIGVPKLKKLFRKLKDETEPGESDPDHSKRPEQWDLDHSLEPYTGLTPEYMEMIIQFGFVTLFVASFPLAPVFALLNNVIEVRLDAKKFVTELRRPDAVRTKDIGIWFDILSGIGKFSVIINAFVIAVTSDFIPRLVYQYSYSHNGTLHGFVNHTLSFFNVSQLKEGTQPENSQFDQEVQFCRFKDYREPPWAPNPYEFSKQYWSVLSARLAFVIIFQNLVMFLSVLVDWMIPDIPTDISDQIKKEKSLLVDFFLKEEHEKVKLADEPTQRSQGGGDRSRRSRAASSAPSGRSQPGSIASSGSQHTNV
Description: (§1) Snapwell inserts containing ANO1, ANO2 or CFTR expressing FRT cells, ENaC expressing T-84 cells or the human primary airway epithelial cells were mounted in Ussing chambers (Physiologic Instruments, San Diego, CA). To induce transcriptional ENaC induction, the polarized T84 cells were incubated with 2 mM sodium butyrate for 2 days. To increase the functional expression of ANO1, the human airway epithelial cells were treated with IL-4 (10 ng/mL) for 2 days. For T-84 and the human primary airway epithelial cells, the apical and basolateral bath were filled with HCO3^—buffered solution containing (in mM): 120 NaCl, 5 KCl, 1 MgCl2, 1 CaCl2, 10 D-glucose, 2.5 HEPES, and 25 NaHCO3 (pH 7.4). For FRT cells, the basolateral bath was filled with the HCO3^—buffered solution and the apical bath was filled with a half-Cl^- solution. In the half-Cl^- solution 65 mM NaCl in the HCO3^—buffered solution was replaced by Na-gluconate. […] ATP was applied to the apical bath solution to induce intracellular calcium increase. […] Apical membrane currents were measured with an EVC4000 Multi-Channel V/I Clamp (World Precision Instruments, Sarasota, FL) and PowerLab 4/35 (AD Instruments, Castle Hill, Australia). Data were analyzed using Labchart Pro 7 (AD Instruments). The sampling rate was 4 Hz.
ANO1 belongs to anoctamin gene family which contains ten members presenting eight-pass transmembrane segments with cytosolic N- and C-terminals. ANO2 shares a high level of amino acid homology to ANO1 (~60%) and, ANO1 and ANO2 are confirmed CaCCs. However, the roles of other family members (ANO3-ANO10) remain poorly understood and controversial. […] We investigated the effect of these inhibitors on ANO2-mediated apical membrane current in FRT-ANO2 cells.

VRAC [2] = assay: VRAC activity by YFP quenching in LN215 cells; format: cell-based, human; conditions: 10 μM
Description: LN215 cells, a human glioma cell line, were stably transfected with YFP-F46L/H148Q/I152L, a halide sensor YFP. After the cells were incubated on 96well black plates (Corning Inc., Corning, NY) for 48 hours, each well of the 96-well plate was washed 3 times in PBS (200 μL/wash), and the wells were filled with 50 μl/well isotonic solution (in mM): 140 NaCl, 5 KCl, 20 HEPES (310 mOsm/kg; pH 7.4 with NaOH). In each well, VRAC expressed on the cells were stimulated with addition of 50 μl of hypotonic solutions (in mM): 5 KCl, 20 HEPES, 90 mannitol (120 mOsm/kg). Test compounds (1 μL) were added to each well in a dose dependent manner. After 5 min, 96-well plates were transferred to a plate reader for fluorescence assay. Each well was assayed individually for VRAC-mediated I^- influx by recording fluorescence continuously (400 ms per point) for 7.6 s. YFP fluorescence was recorded 0.4 s for baseline, then 100 μL of 140 mM I^- solution was added at 0.4 s to see the change in fluorescence. Initial iodide influx rate was determined from the initial slope of fluorescence decrease, by nonlinear regression, following infusion of iodide.

mouse ANO2 = biological target: T2, mouse ANO2 (Mus musculus, UniProt Q8CFW1); assay: YFP quenching assay in FRT cells expressing ANO2; format: cell-based; conditions: dose dependent, 100 μM ATP
T2 sequence (Q8CFW1 1-1002): T1 sequence (Q8CFW1 1-1002)

ANO1 [3] = biological target: T3, ANO1 (Homo sapiens, UniProt Q5XXA6, DEL476-501); assay: Apical membrane current in ANO1 expressing FRT cells; format: cell-based; conditions: 100 μM ATP
T3 construct: expressed in transfected cells
T3 sequence (Q5XXA6 with tags, fused parts or gaps isoform Q5XXA6-5 DEL539-564): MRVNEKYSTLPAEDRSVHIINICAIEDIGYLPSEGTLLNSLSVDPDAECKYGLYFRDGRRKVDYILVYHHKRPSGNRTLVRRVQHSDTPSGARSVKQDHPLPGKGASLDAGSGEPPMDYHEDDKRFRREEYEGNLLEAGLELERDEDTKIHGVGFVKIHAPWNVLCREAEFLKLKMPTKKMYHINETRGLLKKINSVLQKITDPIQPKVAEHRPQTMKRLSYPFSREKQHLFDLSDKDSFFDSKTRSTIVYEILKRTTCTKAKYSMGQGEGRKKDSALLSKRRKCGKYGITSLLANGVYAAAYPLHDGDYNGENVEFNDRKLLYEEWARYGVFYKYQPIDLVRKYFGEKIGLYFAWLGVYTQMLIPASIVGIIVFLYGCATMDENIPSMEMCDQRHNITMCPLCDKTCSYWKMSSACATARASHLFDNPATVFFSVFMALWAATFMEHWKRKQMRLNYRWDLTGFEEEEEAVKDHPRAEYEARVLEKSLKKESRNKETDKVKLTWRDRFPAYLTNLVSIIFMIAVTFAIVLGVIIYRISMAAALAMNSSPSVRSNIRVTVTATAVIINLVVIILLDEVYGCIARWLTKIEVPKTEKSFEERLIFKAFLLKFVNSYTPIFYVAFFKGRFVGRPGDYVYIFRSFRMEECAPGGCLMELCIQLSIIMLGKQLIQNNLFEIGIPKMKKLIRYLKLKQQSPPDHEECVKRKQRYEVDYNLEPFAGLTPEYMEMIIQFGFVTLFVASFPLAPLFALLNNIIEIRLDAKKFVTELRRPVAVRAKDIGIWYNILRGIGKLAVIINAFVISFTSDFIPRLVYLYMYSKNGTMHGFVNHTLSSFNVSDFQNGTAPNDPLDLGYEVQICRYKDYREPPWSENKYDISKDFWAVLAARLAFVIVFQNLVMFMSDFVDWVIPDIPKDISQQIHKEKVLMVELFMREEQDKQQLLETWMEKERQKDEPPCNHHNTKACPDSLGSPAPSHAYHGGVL
Description: as §1

ANO1 [4] = system: ANO1; set-up: method as in PMID 25739000; conditions: spontaneously hypertensive rats (SHRs) ref [8]; cited from earlier work
VRAC [5] = system: VRAC; set-up: method as in PMID 24965069, PMID 25163766, PMID 26438191; conditions: ref [26]–[28]; cited from earlier work
CaCCs in NHNE cells = biological target: T4, CaCCs in NHNE cells (Homo sapiens, UniProt Q5XXA6); assay: Short-circuit current of CaCC in IL-4 treated NHNE cells; format: cell-based; conditions: 100 μM
T4 sequence (Q5XXA6 1-986): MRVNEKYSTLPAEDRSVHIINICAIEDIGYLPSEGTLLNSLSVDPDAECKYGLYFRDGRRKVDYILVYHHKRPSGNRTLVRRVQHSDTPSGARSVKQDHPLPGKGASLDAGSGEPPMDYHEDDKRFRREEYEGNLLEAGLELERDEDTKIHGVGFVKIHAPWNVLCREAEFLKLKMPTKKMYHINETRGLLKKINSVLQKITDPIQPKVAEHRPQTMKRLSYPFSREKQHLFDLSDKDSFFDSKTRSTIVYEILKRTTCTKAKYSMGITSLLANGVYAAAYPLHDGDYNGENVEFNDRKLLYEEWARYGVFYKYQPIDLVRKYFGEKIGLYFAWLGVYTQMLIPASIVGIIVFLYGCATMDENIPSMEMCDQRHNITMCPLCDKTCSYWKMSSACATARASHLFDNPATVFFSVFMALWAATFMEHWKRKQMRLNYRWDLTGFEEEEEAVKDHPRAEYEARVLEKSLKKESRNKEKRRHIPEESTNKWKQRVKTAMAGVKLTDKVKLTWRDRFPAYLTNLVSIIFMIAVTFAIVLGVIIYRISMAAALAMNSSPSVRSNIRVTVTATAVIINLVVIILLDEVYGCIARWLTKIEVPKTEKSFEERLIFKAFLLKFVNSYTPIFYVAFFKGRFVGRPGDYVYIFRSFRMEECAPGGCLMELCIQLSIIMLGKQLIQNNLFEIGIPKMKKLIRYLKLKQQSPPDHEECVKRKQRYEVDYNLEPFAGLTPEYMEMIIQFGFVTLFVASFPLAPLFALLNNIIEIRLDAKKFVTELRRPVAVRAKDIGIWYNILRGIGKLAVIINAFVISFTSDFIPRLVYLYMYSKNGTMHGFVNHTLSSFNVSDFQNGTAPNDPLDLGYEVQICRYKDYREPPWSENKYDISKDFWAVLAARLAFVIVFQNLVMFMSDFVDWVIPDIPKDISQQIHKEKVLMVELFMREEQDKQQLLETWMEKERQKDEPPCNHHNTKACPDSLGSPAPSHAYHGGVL
Description: Snapwell inserts containing ANO1, ANO2 or CFTR expressing FRT cells, ENaC expressing T-84 cells or the human primary airway epithelial cells were mounted in Ussing chambers (Physiologic Instruments, San Diego, CA). To induce transcriptional ENaC induction, the polarized T84 cells were incubated with 2 mM sodium butyrate for 2 days. To increase the functional expression of ANO1, the human airway epithelial cells were treated with IL-4 (10 ng/mL) for 2 days. For T-84 and the human primary airway epithelial cells, the apical and basolateral bath were filled with HCO3^—buffered solution containing (in mM): 120 NaCl, 5 KCl, 1 MgCl2, 1 CaCl2, 10 D-glucose, 2.5 HEPES, and 25 NaHCO3 (pH 7.4). For FRT cells, the basolateral bath was filled with the HCO3^—buffered solution and the apical bath was filled with a half-Cl^- solution. In the half-Cl^- solution 65 mM NaCl in the HCO3^—buffered solution was replaced by Na-gluconate. […] ATP was applied to the apical bath solution to induce intracellular calcium increase. […] Apical membrane currents were measured with an EVC4000 Multi-Channel V/I Clamp (World Precision Instruments, Sarasota, FL) and PowerLab 4/35 (AD Instruments, Castle Hill, Australia). Data were analyzed using Labchart Pro 7 (AD Instruments). The sampling rate was 4 Hz. […]

Compound	effect on capsaicin-evoked pain-related behaviors (ANO1 [1])	effect on ATP-induced ANO2 current (ANO2)	inhibition of VRAC activity (VRAC [2])	effect on ANO2 activity (mouse ANO2)	inhibition of ATP-induced ANO1 current (ANO1 [3]; 10 μM pretreatment)	IC50 (ANO1 [3]; apical membrane current, 20 min pretreatment, read-out: IC50 of ATP-induced ANO1 activation)	effect on BP (ANO1 [4])	block of VRAC activity (VRAC [5])	effect on remaining CaCCs currents (CaCCs in NHNE cells)
CCc1c(C)nc(SCC(=O)Nc2nc(-c3ccc(OC)cc3)cs2)[nH]c1=O [Ani T16Ainh-A01]	significantly reduced	strongly blocked	71.2 ± 1.6%	potently blocked	almost complete inhibition	1.39 ± 0.59 µM	significantly reduced	potently blocked	
tannic acid									abolished
